Molecules are shown by their SMILES.

Assay [1] concerns transgenic rats with activated polyamine catabolism. Set-up: method as in PMID 12181316, PMID 19956991, PMID 20453551. Particulars: cited from earlier work.
The subject of a further assay is hair follicle cycle. Details: method as in PMID 19956989. Particulars: mice; cited from earlier work.
For assay [2], the system named is OAZ1-overexpressing DU145 cells. Briefly: Uptake of Spd and its analogues in OAZ1-overexpressing DU145 cells. Type of assay: cell-based. The note with it: DOX 250 ng/mL 24 h, compounds 100 µM, 6 h. The method, then: Figure 3 2-MeSpd is the weakest inducer of OAZ1 synthesis and the weakest downregulator of ODC in DU145 cells. (A) Uptake of Spd and its analogues in CHX-treated DU145 cells. After 2 h preincubation with CHX (100 µg/mL), the compounds (100 µM) were added, and incubation continued for 4 h before the analysis of the intracellular analogue concentration. (B) Uptake of Spd and its analogues in OAZ1-overexpressing DU145 cells. OAZ1 was induced by 24 h preincubation with DOX (250 ng/mL). The compounds (100 µM) were added for further 6 h before the analysis of intracellular analogue concentration. (C) Effect of Spd and the analogues on OAZ1 protein levels in DU145 cells. The cells were incubated for 4 h with 100 μM analogues in the presence of the proteasomal inhibitor, MG132 (25 μM). (D) Effect of Spd and the analogues on ODC activity in DU145 cells. […]
Polyamines were measured with HPLC according to the published method. Acid-precipitated pellets were dissolved to 0.1 M NaOH, and the amount of DNA was measured using the PicoGreen reagent (Invitrogen) according to manufacturer’s instructions using dilutions of calf thymus DNA (Sigma-Aldrich) as standard curve. Protein concentrations were measured using Bio-Rad protein kit with dilutions of bovine serum albumin (Bio-Rad, Hercules, CA, USA) as standards. ODC activities were measured from the cytosolic fractions as described earlier. […]

For assay [3], the system named is polyamine uptake in OAZ1-overexpressing DU145 cells. Nature of the assay: [14C]-Put and -Spd uptake in OAZ1-overexpressing DU145 cells. Type of assay: cell-based. The note with it: DFMO 5 mM 3 days, DOX 1 μg/mL 2 days, analogue 100 μM 4 h with APCHA 50 μM, AG 1 mM; 20 min uptake. The method, then: OAZ1-overexpressing DU145 cells were plated onto 6-well plates and incubated overnight. The cells were first treated with DFMO (5 mM) for 3 days, after which DOX (1 μg/mL) was added for further 2 days to induce OAZ1 overexpression. Then, AG (1 mM), APCHA (50 μM), and Spd/analogue (100 μM) were added for 4 h. The plates were washed with warm DMEM and incubated for 20 min in [^14C]-Put or [^14C]-Spd labeling mix (10 μM Put/Spd, specific activity 25 mCi/mmol, in DMEM). The plates were washed twice with ice-cold PBS and lysed to 0.5 mL of 0.1 M NaOH. An aliquot was taken for measurement of ^14C radioactivity, and the counts were normalized to total protein in the sample.

For `CC(N)CCNCCCCN` (stereo not drawn) [1-MeSpd], in assay [1], the Acute pancreatitis result was “prevented acute pancreatitis” and the Liver regeneration entry was “restored liver regeneration”. Further, the Hair follicle cycle result in the assay with hair follicle cycle is “activate the hair follicle cycle”.
In the case of `CC(CN)CNCCCCN` (stereo not drawn) [2-MeSpd], the “Uptake upon DOX-induced expression of OAZ1” value in assay [2] is reported as “reduced the uptake”. In assay [3], the “Downregulation of [^14C]-Put uptake” value is “weakest downregulation” and the “Downregulation of [^14C]-Spd uptake” value is on record as “weakest downregulation”.

Source of the values: article PMC9104013, “Role of Polyamine-Induced Dimerization of Antizyme in Its Cellular Functions” (International Journal of Molecular Sciences, 2022).
